Here are results for 5 compounds from ChEMBL document CHEMBL5625277, “Systematical mutational analysis of teriparatide on anti-osteoporosis activity by alanine scanning” (Bioorg Med Chem Lett, 2024).

In one data set the test system is Skull progenitor cell. The experiment in a line: Induction of osteoblast differentiation in mouse skull progenitor cells assessed as increase in purple-stained ALP-positive cells at 100 nM measured after 4 days by imaging analysis. In kind it is functional, cell-based. Particulars: time 4.0 day.
The nature of data set [1]: Cytotoxicity in pre-osteoblasts (unknown origin) assessed as cell death upto 5 uM by CCK8 assay. The data set is classed as toxicity, cell-based. Particulars: pre-osteoblast. For orientation: Tetrazolium assays rely on reduction of a dye to a coloured formazan, in cell work by metabolically active cells.
The subject of another data set is Calvarial osteoblast. The data set is described as follows: Induction of mineralization in osteoblast assessed as formation of calcium nodules at 50 to 100 nM measured after 14 days by Alizarin Red S staining based analysis. In kind it is functional, cell-based. Particulars: dose 50-100 nM, time 14.0 day.

Activity calls are given as the source filed them. The calls are words filed in the database; no cut-off is given here.

As for `CC[C@H](C)[C@H](NC(=O)[C@H](CCC(=O)O)NC(=O)[C@H](CO)NC(=O)[C@@H](NC(=O)[C@H](CO)NC(C)=O)C(C)C)C(=O)N[C@@H](CCC(N)=O)C(=O)N[C@@H](CC(C)C)C(=O)N[C@@H](CCSC)C(=O)N[C@@H](Cc1cnc[nH]1)C(=O)N[C@@H](CC(N)=O)C(=O)N[C@@H](CC(C)C)C(=O)NCC(=O)N[C@@H](CCCCN)C(=O)N[C@@H](Cc1cnc[nH]1)C(=O)N[C@@H](CC(C)C)C(=O)N[C@@H](CC(N)=O)C(=O)N[C@@H](CO)C(=O)N[C@@H](CCSC)C(=O)N[C@@H](CCC(=O)O)C(=O)N[C@@H](CCCNC(=N)N)C(=O)N[C@H](C(=O)N[C@@H](CCC(=O)O)C(=O)N[C@@H](Cc1c[nH]c2ccccc12)C(=O)N[C@@H](CC(C)C)C(=O)N[C@@H](CCCNC(=N)N)C(=O)N[C@@H](CCCCN)C(=O)N[C@@H](CCCCN)C(=O)N[C@@H](CC(C)C)C(=O)N[C@@H](CCC(N)=O)C(=O)N[C@@H](C)C(=O)N[C@H](C(=O)N[C@@H](Cc1cnc[nH]1)C(=O)N[C@@H](CC(N)=O)C(=O)N[C@@H](Cc1ccccc1)C(N)=O)C(C)C)C(C)C`, the outcome in the data set with Skull progenitor cell and in the data set with Calvarial osteoblast was Active. The Activity entry in data set [1] is given as “Non-Toxic”. Turning to `CC[C@H](C)[C@H](NC(=O)[C@H](CCC(=O)O)NC(=O)[C@H](CO)NC(=O)[C@@H](NC(=O)[C@H](CO)NC(C)=O)C(C)C)C(=O)N[C@@H](CCC(N)=O)C(=O)N[C@@H](CC(C)C)C(=O)N[C@@H](CCSC)C(=O)N[C@@H](Cc1cnc[nH]1)C(=O)N[C@@H](CC(N)=O)C(=O)N[C@@H](CC(C)C)C(=O)NCC(=O)N[C@@H](C)C(=O)N[C@@H](Cc1cnc[nH]1)C(=O)N[C@@H](CC(C)C)C(=O)N[C@@H](CC(N)=O)C(=O)N[C@@H](CO)C(=O)N[C@@H](CCSC)C(=O)N[C@@H](CCC(=O)O)C(=O)N[C@@H](CCCNC(=N)N)C(=O)N[C@H](C(=O)N[C@@H](CCC(=O)O)C(=O)N[C@@H](Cc1c[nH]c2ccccc12)C(=O)N[C@@H](CC(C)C)C(=O)N[C@@H](CCCNC(=N)N)C(=O)N[C@@H](CCCCN)C(=O)N[C@@H](CCCCN)C(=O)N[C@@H](CC(C)C)C(=O)N[C@@H](CCC(N)=O)C(=O)N[C@@H](CC(=O)O)C(=O)N[C@H](C(=O)N[C@@H](Cc1cnc[nH]1)C(=O)N[C@@H](CC(N)=O)C(=O)N[C@@H](Cc1ccccc1)C(N)=O)C(C)C)C(C)C`, the result in the data set with Skull progenitor cell and in the data set with Calvarial osteoblast was Active. The Activity entry in data set [1] is reported as “Non-Toxic”. For the compound `CC[C@H](C)[C@H](NC(=O)[C@H](CCC(=O)O)NC(=O)[C@H](CO)NC(=O)[C@@H](NC(=O)[C@H](CO)NC(C)=O)C(C)C)C(=O)N[C@@H](CCC(N)=O)C(=O)N[C@@H](C)C(=O)N[C@@H](CCSC)C(=O)N[C@@H](Cc1cnc[nH]1)C(=O)N[C@@H](CC(N)=O)C(=O)N[C@@H](CC(C)C)C(=O)NCC(=O)N[C@@H](CCCCN)C(=O)N[C@@H](Cc1cnc[nH]1)C(=O)N[C@@H](CC(C)C)C(=O)N[C@@H](CC(N)=O)C(=O)N[C@@H](CO)C(=O)N[C@@H](CCSC)C(=O)N[C@@H](CCC(=O)O)C(=O)N[C@@H](CCCNC(=N)N)C(=O)N[C@H](C(=O)N[C@@H](CCC(=O)O)C(=O)N[C@@H](Cc1c[nH]c2ccccc12)C(=O)N[C@@H](CC(C)C)C(=O)N[C@@H](CCCNC(=N)N)C(=O)N[C@@H](CCCCN)C(=O)N[C@@H](CCCCN)C(=O)N[C@@H](CC(C)C)C(=O)N[C@@H](CCC(N)=O)C(=O)N[C@@H](CC(=O)O)C(=O)N[C@H](C(=O)N[C@@H](Cc1cnc[nH]1)C(=O)N[C@@H](CC(N)=O)C(=O)N[C@@H](Cc1ccccc1)C(N)=O)C(C)C)C(C)C`, the Activity result in data set [1] is “Non-Toxic”. The same measure, in the same setting: then `CC[C@H](C)[C@H](NC(=O)[C@H](CCC(=O)O)NC(=O)[C@H](CO)NC(=O)[C@@H](NC(=O)[C@H](CO)NC(C)=O)C(C)C)C(=O)N[C@@H](CCC(N)=O)C(=O)N[C@@H](CC(C)C)C(=O)N[C@@H](CCSC)C(=O)N[C@@H](Cc1cnc[nH]1)C(=O)N[C@@H](CC(N)=O)C(=O)N[C@@H](CC(C)C)C(=O)NCC(=O)N[C@@H](CCCCN)C(=O)N[C@@H](Cc1cnc[nH]1)C(=O)N[C@@H](CC(C)C)C(=O)N[C@@H](CC(N)=O)C(=O)N[C@@H](CO)C(=O)N[C@@H](CCSC)C(=O)N[C@@H](CCC(=O)O)C(=O)N[C@@H](CCCNC(=N)N)C(=O)N[C@H](C(=O)N[C@@H](CCC(=O)O)C(=O)N[C@@H](Cc1c[nH]c2ccccc12)C(=O)N[C@@H](CC(C)C)C(=O)N[C@@H](CCCNC(=N)N)C(=O)N[C@@H](CCCCN)C(=O)N[C@@H](CCCCN)C(=O)N[C@@H](CC(C)C)C(=O)N[C@@H](CCC(N)=O)C(=O)N[C@@H](CC(=O)O)C(=O)N[C@H](C(=O)N[C@@H](Cc1cnc[nH]1)C(=O)N[C@@H](CC(N)=O)C(=O)N[C@@H](Cc1ccccc1)C(N)=O)C(C)C)C(C)C`, with “Non-Toxic”. Same read-out and setting: the same measure for `CC[C@H](C)[C@H](NC(=O)[C@H](CCC(=O)O)NC(=O)[C@H](CO)NC(=O)[C@@H](NC(=O)[C@H](CO)NC(C)=O)C(C)C)C(=O)N[C@@H](CCC(N)=O)C(=O)N[C@@H](CC(C)C)C(=O)N[C@@H](CCSC)C(=O)N[C@@H](Cc1cnc[nH]1)C(=O)N[C@@H](CC(N)=O)C(=O)N[C@@H](CC(C)C)C(=O)NCC(=O)N[C@@H](CCCCN)C(=O)N[C@@H](Cc1cnc[nH]1)C(=O)N[C@@H](CC(C)C)C(=O)N[C@@H](CC(N)=O)C(=O)N[C@@H](CO)C(=O)N[C@@H](CCSC)C(=O)N[C@@H](CCC(=O)O)C(=O)N[C@@H](CCCNC(=N)N)C(=O)N[C@@H](C)C(=O)N[C@@H](CCC(=O)O)C(=O)N[C@@H](Cc1c[nH]c2ccccc12)C(=O)N[C@@H](CC(C)C)C(=O)N[C@@H](CCCNC(=N)N)C(=O)N[C@@H](CCCCN)C(=O)N[C@@H](CCCCN)C(=O)N[C@@H](CC(C)C)C(=O)N[C@@H](CCC(N)=O)C(=O)N[C@@H](CC(=O)O)C(=O)N[C@H](C(=O)N[C@@H](Cc1cnc[nH]1)C(=O)N[C@@H](CC(N)=O)C(=O)N[C@@H](Cc1ccccc1)C(N)=O)C(C)C`: “Non-Toxic”.
